According to ChEMBL document CHEMBL4177650, “Synthesis and biological evolution of hydrazones derived from 4-(trifluoromethyl)benzohydrazide” (Bioorg Med Chem Lett, 2017):
Values after ≈ are worked out from the molar mass of the structure shown. Active and inactive are the calls of the source. The rule behind the calls is not given here.

Legend:
[1] = system: Trichophyton mentagrophytes; assay: Antifungal activity against Trichophyton mentagrophytes 445 after 72 hrs by microdilution broth method; format: functional; conditions: Trichophyton mentagrophytes, 445, 72 h
[2] = system: Candida tropicalis; assay: Antifungal activity against Candida tropicalis 156 after 48 hrs by microdilution broth method; format: functional; conditions: Candida tropicalis, 156, 48 h
[3] = system: Escherichia coli; assay: Antibacterial activity against gram-negative Escherichia coli CCM 4517 after 48 hrs by microdilution broth method; format: functional; conditions: CCM 4517, 48 h
[4] = system: Mycobacterium avium; assay: Antimycobacterial activity against Mycobacterium avium 330/88 after 21 days by micromethod; format: functional; conditions: 330/88, 504 h
[5] = system: Mycobacterium kansasii; assay: Antimycobacterial activity against Mycobacterium kansasii 6509/96 after 14 days by micromethod; format: functional; conditions: 6509/96, 336 h
[6] = Selectivity index, ratio of IC50 for human HepG2 cells to MIC for Mycobacterium kansasii 6509/80; format: toxicity; conditions: read-out: Selectivity Index
[7] = system: Staphylococcus aureus; assay: Antibacterial activity against gram-positive methicillin-resistant Staphylococcus aureus H 5996/08 after 48 hrs by microdilution broth method; format: functional; conditions: H 5996/08, 48 h
[8] = Selectivity index, ratio of IC50 for human HepG2 cells to MIC for Trichophyton mentagrophytes 445; format: toxicity; conditions: read-out: Selectivity Index
[9] = system: Staphylococcus aureus; assay: Antibacterial activity against gram-positive methicillin-resistant Staphylococcus aureus H 5996/08 after 24 hrs by microdilution broth method; format: functional; conditions: H 5996/08, 24 h
[10] = system: Mycobacterium kansasii; assay: Antimycobacterial activity against Mycobacterium kansasii 6509/96 after 21 days by micromethod; format: functional; conditions: 6509/96, 504 h
[11] = system: Klebsiella pneumoniae; assay: Antibacterial activity against gram-negative Klebsiella pneumoniae D 11750/08 after 24 to 48 hrs by microdilution broth method; format: functional, organism-based
[12] = system: Lichtheimia corymbifera; assay: Antifungal activity against Absidia corymbifera 272 after 24 to 48 hrs by microdilution broth method; format: functional, organism-based
[13] = system: Staphylococcus epidermidis; assay: Antibacterial activity against gram-positive Staphylococcus epidermidis H 6966/08 after 24 hrs by microdilution broth method; format: functional; conditions: H 6966/08, 24 h
[14] = Selectivity index, ratio of IC50 for human HepG2 cells to MIC for Mycobacterium tuberculosis H37Rv 331/88; format: toxicity; conditions: read-out: Selectivity Index
[15] = system: Candida albicans; assay: Antifungal activity against Candida albicans ATCC 44859 after 24 to 48 hrs by microdilution broth method; format: functional, organism-based
[16] = system: MONO-MAC-6; assay: Cytostatic activity against human MONO-MAC-6 cells incubated overnight followed by compound wash measured after 72 hrs by MTT assay; format: ADME, cell-based; conditions: MONO-MAC-6, 72 h
[17] = system: Mycobacterium tuberculosis; assay: Antimycobacterial activity against Mycobacterium tuberculosis H37Rv 331/88 after 14 days by micromethod; format: functional; conditions: H37Rv 331/88, 336 h
[18] = system: Staphylococcus aureus; assay: Antibacterial activity against gram-positive Staphylococcus aureus CCM 4516/08 after 48 hrs by microdilution broth method; format: functional; conditions: CCM 4516/08, 48 h
[19] = system: Pseudomonas aeruginosa; assay: Antibacterial activity against gram-negative Pseudomonas aeruginosa CCM 1961 after 48 hrs by microdilution broth method; format: functional, organism-based
[20] = system: Staphylococcus aureus; assay: Antibacterial activity against gram-positive Staphylococcus aureus CCM 4516/08 after 24 hrs by microdilution broth method; format: functional; conditions: CCM 4516/08, 24 h
[21] = system: Nakaseomyces glabratus; assay: Antifungal activity against Candida glabrata 20/I after 24 hrs by microdilution broth method; format: functional
[22] = system: Aspergillus fumigatus; assay: Antifungal activity against Aspergillus fumigatus 231 after 24 to 48 hrs by microdilution broth method; format: functional, organism-based
[23] = system: MONO-MAC-6; assay: Cytotoxicity against human MONO-MAC-6 cells after overnight incubation by MTT assay; format: functional, cell-based
[24] = system: HepG2; assay: Cytotoxicity against human HepG2 cells after overnight incubation by MTT assay; format: cell-based
[25] = system: Escherichia coli; assay: Antibacterial activity against gram-negative Escherichia coli CCM 4517 after 24 hrs by microdilution broth method; format: functional; conditions: CCM 4517, 24 h
[26] = system: Enterococcus faecalis; assay: Antibacterial activity against gram-positive Enterococcus faecalis J 14365/08 after 24 hrs by microdilution broth method; format: functional; conditions: J 14365/08, 24 h
[27] = system: Staphylococcus epidermidis; assay: Antibacterial activity against gram-positive Staphylococcus epidermidis H 6966/08 after 48 hrs by microdilution broth method; format: functional; conditions: H 6966/08, 48 h
[28] = system: Mycobacterium tuberculosis; assay: Antimycobacterial activity against Mycobacterium tuberculosis H37Rv 331/88 after 21 days by micromethod; format: functional; conditions: H37Rv 331/88, 504 h
[29] = system: Mycobacterium avium; assay: Antimycobacterial activity against Mycobacterium avium 330/88 after 14 days by micromethod; format: functional; conditions: 330/88, 336 h
[30] = system: Nakaseomyces glabratus; assay: Antifungal activity against Candida glabrata 20/I after 48 hrs by microdilution broth method; format: functional
[31] = Selectivity index, ratio of IC50 for human HepG2 cells to MIC for Candida glabrata 20/I; format: toxicity; conditions: read-out: Selectivity Index
[32] = Cytotoxicity against mouse bone marrow macrophages after overnight incubation by MTT assay; conditions: BMDM
[33] = system: Mycobacterium kansasii; assay: Antimycobacterial activity against Mycobacterium kansasii 6509/80 after 14 days by micromethod; format: functional; conditions: 6509/80, 336 h
[34] = system: Candida tropicalis; assay: Antifungal activity against Candida tropicalis 156 after 24 hrs by microdilution broth method; format: functional; conditions: Candida tropicalis, 156, 24 h
[35] = Selectivity index, ratio of IC50 for human HepG2 cells to MIC for gram-positive Staphylococcus aureus CCM 4516/08; format: toxicity; conditions: read-out: Selectivity Index
[36] = system: Mycobacterium kansasii; assay: Antimycobacterial activity against Mycobacterium kansasii 6509/96 after 7 days by micromethod; format: functional; conditions: 6509/96, 168 h
[37] = system: Trichophyton mentagrophytes; assay: Antifungal activity against Trichophyton mentagrophytes 445 after 120 hrs by microdilution broth method; format: functional; conditions: Trichophyton mentagrophytes, 445, 120 h
[38] = system: Trichosporon asahii; assay: Antifungal activity against Trichosporon asahii 1188 after 24 to 48 hrs by microdilution broth method; format: functional, organism-based
[39] = Selectivity index, ratio of IC50 for human HepG2 cells to MIC for Mycobacterium kansasii 6509/96; format: toxicity; conditions: read-out: Selectivity Index
[40] = system: Mycobacterium kansasii; assay: Antimycobacterial activity against Mycobacterium kansasii 6509/80 after 21 days by micromethod; format: functional; conditions: 6509/80, 504 h
[41] = system: HepG2; assay: Cytostatic activity against human HepG2 cells incubated overnight followed by compound wash measured after 72 hrs by MTT assay; format: ADME, cell-based; conditions: HepG2, 72 h
[42] = system: Pichia kudriavzevii; assay: Antifungal activity against Candida krusei E28 after 24 hrs by microdilution broth method; format: functional; conditions: E28, 24 h
[43] = system: Pichia kudriavzevii; assay: Antifungal activity against Candida krusei E28 after 48 hrs by microdilution broth method; format: functional; conditions: E28, 48 h
[44] = system: Klebsiella pneumoniae; assay: Antibacterial activity against extended spectrum beta-lactamase-positive Klebsiella pneumoniae J 14368/08 after 24 to 48 hrs by microdilution broth method; format: functional, organism-based
[45] = Selectivity index, ratio of IC50 for human HepG2 cells to MIC for Mycobacterium avium 330/88; format: toxicity; conditions: read-out: Selectivity Index
[46] = system: Enterococcus faecalis; assay: Antibacterial activity against gram-positive Enterococcus faecalis J 14365/08 after 48 hrs by microdilution broth method; format: functional; conditions: J 14365/08, 48 h
[47] = system: Mycobacterium kansasii; assay: Antimycobacterial activity against Mycobacterium kansasii 6509/80 after 7 days by micromethod; format: functional; conditions: 6509/80, 168 h

## O=C(N/N=C/c1cc(Cl)ccc1O)c1ccc(C(F)(F)F)cc1
[1]
  MIC: 1.98 µM (≈ 0.679 µg/mL)
[2]
  MIC: > 125 µM
[3]
  MIC: 250 µM (≈ 85.7 µg/mL)
[4]
  MIC: 125 µM (≈ 42.8 µg/mL)
[5]
  MIC: 125 µM (≈ 42.8 µg/mL)
[6]
  selectivity ratio: > 1.6
[7]
  MIC: 1.98 µM (≈ 0.679 µg/mL)
[8]
  selectivity ratio: > 25.6
[9]
  MIC: 1.98 µM (≈ 0.679 µg/mL)
[10]
  MIC: 125 µM (≈ 42.8 µg/mL)
[11]
  Activity: inactive
[12]
  Activity: inactive
[13]
  MIC: 3.9 µM (≈ 1.34 µg/mL)
[14]
  selectivity ratio: > 1.6
[15]
  Activity: inactive
[16]
  IC50: 10.3 µM
[17]
  MIC: 62.5 µM (≈ 21.4 µg/mL)
[18]
  MIC: 1.98 µM (≈ 0.679 µg/mL)
[19]
  Activity: inactive
[20]
  MIC: 1.98 µM (≈ 0.679 µg/mL)
[21]
  MIC: ≤ 0.49 µM
[22]
  Activity: inactive
[23]
  IC50: 5.8 µM
[24]
  IC50: > 100 µM
[25]
  MIC: 250 µM (≈ 85.7 µg/mL)
[26]
  MIC: 1.98 µM (≈ 0.679 µg/mL)
[27]
  MIC: 3.9 µM (≈ 1.34 µg/mL)
[28]
  MIC: 62.5 µM (≈ 21.4 µg/mL)
[29]
  MIC: 62.5 µM (≈ 21.4 µg/mL)
[30]
  MIC: 0.98 µM (≈ 0.336 µg/mL)
[31]
  selectivity ratio: > 25.6
[32]
  IC50: > 100 µM
[33]
  MIC: 125 µM (≈ 42.8 µg/mL)
[34]
  MIC: > 125 µM
[35]
  selectivity ratio: > 50.5
[36]
  MIC: 62.5 µM (≈ 21.4 µg/mL)
[37]
  MIC: 3.9 µM (≈ 1.34 µg/mL)
[38]
  Activity: inactive
[39]
  selectivity ratio: > 1.6
[40]
  MIC: 125 µM (≈ 42.8 µg/mL)
[41]
  IC50: 13.6 µM
[42]
  MIC: > 125 µM
[43]
  MIC: > 125 µM
[44]
  Activity: inactive
[45]
  selectivity ratio: > 1.6
[46]
  MIC: 3.9 µM (≈ 1.34 µg/mL)
[47]
  MIC: 62.5 µM (≈ 21.4 µg/mL)
